{"source": "paper PMC7096398", "about": "“Oxytocin Receptors Regulate Social Preference in Zebrafish” (Scientific Reports, 2020)", "key": {"[1]": {"details": "cited from earlier work"}, "[2]": {"tested_on": "zebrafish", "set-up": "method as in 4 sources, ref 42 = [42]; PMID 21956239; doi:10.1007/s00213-011-2482-2; 42. Braida D Neurohypophyseal hormones manipulation modulate social and anxiety-related behavior in zebrafish Psychopharmacology (Berl) 2012 220 319 330 10.1007/s00213-011-2482-2 21956239 ||| ref 44 = [44]; PMID 27247142; doi:10.1016/j.bbr.2016.05.059; 44. Zimmermann FF Gaspary KV Siebel AM Bonan CD Oxytocin reversed MK-801-induced social interaction and aggression deficits in zebrafish Behav Brain Res 2016 311 368 374 10.1016/j.bbr.2016.05.059 2724 ||| ref 51 = [51]; doi:10.1163/1568539x-00003261; 51. Lindeyer CM Langen EMA Swaney WT Reader SM Nonapeptide influences on social behaviour: effects of vasotocin and isotocin on shoaling and interaction in zebrafish Behaviour 2015 152 897 915 10.1163 ||| ref 27 = [27]; PMID 26347614; doi:10.3389/fncir.2015.00039; 27. Dreosti E Lopes G Kampff AR Wilson SW Development of social behavior in young zebrafish Front Neural Circuits 2015 9 39 10.3389/fncir.2015.00039 26347614 PMC4539524", "details": "cited from earlier work", "source_text": "Thus far, dopamine[56] and serotonin[57] in the mesolimbic system and excitation-inhibition balance[58] seem to play a prominent role in social investigation in rodents. Similarly, levels of dopamine and serotonin are modulated in socially interacting fish[59]–[61] and social preference behaviour decreases after treatment with a dopamine D1 receptor antagonist. […] In rodents, release of ... || (+ 1 further places)"}, "[3]": {"target": "T1, Oxtr (Danio rerio, UniProt E4W699)", "T1 construct": "host or cells: HEK293", "T1 sequence (E4W699 1-388)": "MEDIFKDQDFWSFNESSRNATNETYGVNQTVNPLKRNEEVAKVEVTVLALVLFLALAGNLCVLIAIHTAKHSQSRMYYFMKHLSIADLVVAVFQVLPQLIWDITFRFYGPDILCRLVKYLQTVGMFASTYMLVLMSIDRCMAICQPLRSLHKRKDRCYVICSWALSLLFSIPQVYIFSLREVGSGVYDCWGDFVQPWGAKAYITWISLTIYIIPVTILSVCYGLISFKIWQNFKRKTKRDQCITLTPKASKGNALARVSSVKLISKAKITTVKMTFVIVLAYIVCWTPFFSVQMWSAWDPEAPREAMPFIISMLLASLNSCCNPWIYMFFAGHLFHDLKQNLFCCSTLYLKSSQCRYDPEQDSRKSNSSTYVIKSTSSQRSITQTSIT", "assay": "Inositol phosphate accumulation assay, antagonism of 1 μM zVP at Oxtr", "format": "cell-based, zebrafish", "details": "stimulated with zVP", "protocol": "The receptor constructs were ordered from GeneScript and subcloned into a pcDNA3.1/CT-GFP-TOPO vector. The coding sequences of the GenBank entries NM_001199370.1 (oxtr), NM_001199369.1 (oxtrl), NM_001301114.1 (avpr1aa), and NM_001297676.1 (avpr1ab) were used for synthesis. The stop codons were removed, and an additional […] was added to facilitate hybrid protein expression with GFP in frame from the vector. The GCCACC Kozak sequence was inserted before the start codons. After transformation of the plasmid constructs into TOP10 competent cells (Thermo Fisher Scientific), the Maxiprep (Thermo Fisher Scientific) method was used to amplify the plasmids for transfection.\nThe Inositol phosphate accumulation assay was performed according to previous descriptions to measure the potency of different ligands for zebrafish different oxytocin related receptors. Each receptor construct was transfected into HEK293 cells using Lipofectamine 2000 (Thermo Fisher Scientific). Myo2-^3H-inositol (PerkinElmer) at 3 μCi/mL was added the day after transfection. […] Samples were mixed with OptiPhase HiSafe (PerkinElmer Waltham, MA, USA) and ^3H radioactivity was measured with a Tri-Carb 2910TR liquid scintillation counter (PerkinElmer Waltham, MA, USA). […]"}, "[4]": {"tested_on": "adult zebrafish", "assay": "Shoaling test in adult zebrafish", "format": "in vivo, zebrafish (Danio rerio)", "protocol": "Adult and larval behavioural testing was performed between 9 AM and 4 PM. All fish were fed prior to and after experiments, and larvae were also given an additional feed at midday. Adult fish were of a 1:1 sex ratio, and focal fish and stimulus fish were size-matched. Adult fish and shoals were filmed using a web camera and Debut Video Capture Software (NCH Software, Greenwood Village, USA), and videos were analysed using EthoVision version 11 (Noldus, Wageningen, the Netherlands).\nThe shoaling test was performed to examine the effects of L-368,899 on social group behaviour, a test widely used to assess shoaling sensitivity to various drugs and experimental settings[75],[76].\nThe experimental setup comprised a 1.8 L trapezoidal tank (height 16 cm × length at the top 26 cm × length at the bottom 23 cm × width 6 cm, Aquaneering, San Diego, USA). Fifty-six zebrafish were randomly grouped into shoals of four (two males and two females) three days prior to the experiment. […] On day four all shoal members were weighed and injected with either fish Ringer’s (n = 6 shoals) or L-368,899 (n = 7 shoals), using the same procedure described above. Shoals were returned to their respective holding tanks for one hour to recover, and then gently transferred to test tanks, in which they were filmed for 15 minutes.\nAll data for the social preference and novel tank diving experiments in adults were extracted as processed means per minute from EthoVision. For the shoaling experiments, raw data was exported from EthoVision, and then post-processed by an in-house script written in Python 3.4, in order to compute IFD, NND, and FND as described elsewhere. For timelines, repeated measures analysis of variance (RM-ANOVA) was used. For pairwise comparisons of total means between groups, Student’s T-tests were used."}}, "note": "“Also recorded” adds a separate entry of the source.", "data": [{"smiles": "Cc1ccccc1N1CCN(S(=O)(=O)C[C@]23CC[C@H](C[C@@H]2NC(=O)[C@@H](N)CCS(C)(=O)=O)C3(C)C)CC1", "note": "[L-368,899]", "values": [{"measurement": "half-life", "setting": "[1]", "value": "about 2 hours"}, {"measurement": "Social preference, compound by itself", "setting": "[2]; adult zebrafish", "value": "did not decrease social preference"}, {"measurement": "Social deficits following MK-801 exposure", "setting": "[2]; zebrafish exposed to glutamate antagonist MK-801", "value": "did not reverse those deficits"}, {"measurement": "Antagonism at Oxtr, in words", "setting": "[3]", "value": "able to block zVP activation; also recorded: specifically inhibited; also recorded: potently antagonised"}, {"measurement": "Shoaling parameters vs vehicle, outlier vehicle shoal included", "setting": "[4]; IFD, NND, FND, including outlier shoal", "value": "no significant differences"}, {"measurement": "Social behaviour: Nearest neighbour distance", "setting": "[4]; adult shoaling, shoals of four, 100 µg per gram fish i.p., 1 h before 15 min test, mean ± SEM, n = 7 shoals, vehicle 3.3 ± 0.2", "value": "3.7 ± 0.1", "unit": "cm"}, {"measurement": "Social behaviour: Interfish distance", "setting": "[4]; adult shoaling, shoals of four, 100 µg per gram fish i.p., 1 h before 15 min test, mean ± SEM, n = 7 shoals, vehicle 5.9 ± 0.3", "value": "6.7 ± 0.2", "unit": "cm"}, {"measurement": "Social behaviour: Furthest neighbour distance", "setting": "[4]; adult shoaling, shoals of four, 100 µg per gram fish i.p., 1 h before 15 min test, mean ± SEM, n = 7 shoals, vehicle 8.7 ± 0.5", "value": "9.8 ± 0.2", "unit": "cm"}, {"measurement": "Locomotion: Velocity", "setting": "[4]; adult shoaling, shoals of four, 100 µg per gram fish i.p., 1 h before 15 min test, mean ± SEM, vehicle 3.6 ± 0.2, p = 0.30", "value": "3.2 ± 0.3", "unit": "cm/s"}, {"measurement": "Locomotion: Distance", "setting": "[4]; adult shoaling, shoals of four, 100 µg per gram fish i.p., 1 h before 15 min test, mean ± SEM, vehicle 207 ± 15, p = 0.37", "value": "186 ± 17", "unit": "cm/min"}, {"measurement": "Shoaling, in words", "setting": "[4]; adult zebrafish", "value": "potentially also shoaling behaviour; also recorded: tentative and small effect"}, {"measurement": "Activity parameters vs vehicle, shoaling test", "setting": "[4]; average distance p = 0.37, average velocity p = 0.30", "value": "no significant differences"}, {"measurement": "Inter-fish distance (IFD) vs vehicle, outlier excluded", "setting": "[4]; t(10) = 2.276, p = 0.046", "value": "significantly more spread out"}, {"measurement": "Nearest neighbour distance (NND) vs vehicle, outlier excluded", "setting": "[4]; t(10) = 2.324, p = 0.042", "value": "significantly more spread out"}]}]}
